Source: US4327097A, “Novel penicillins” (Toyama Chemical Co., Ltd., priority 1974, dated 1982)
In brackets after ≈: the same amount, converted by molar mass.

Key:
[1] = test system: β-lactamase, Pseudomonas aeruginosa GN 238; experiment: Resistant activity against β-lactamase, iodometric assay; format: biochemical; conditions: β-lactamase from Pseudomonas aeruginosa GN 238; Potassium Penicillin G = 100
Experimental: (3) Resistant activity against β-lactamase, Pseudomonas aerugionsa GN 238:
The resistant activity of each compound against β-lactamase was measured in the manner described below.
β-Lactamase was prepared from Pseudomonas aeruginosa GN 238. This microorganism was cultured in 100 ml of a medium containing 2 g of yeast extract, 10 g of polypeptone, 2 g of glucose, 7 g of disodium hydrogen phosphate, 2 g of potassium dihydrogen phosphate, 1.2 g of ammonium sulfate and 0.4 g of magnesium sulfate, per liter, in a 500-ml Erlenmeyer flask for 6 hrs. at 37° C. with shaking. The resulting cells were collected by centrifugation (5,000 r.p.m.×10 min.), washed three times with 0.1 M phosphate buffer (pH 7.0). Subsequently, the cells were subjected to sonication (20 KHz, 20 min.) and then centrifuged at 15,000 r.p.m. for 60 min. By using the supernatant of enzyme fluid, the resistance of each compound against β-lactamase was determined by the iodometric assay method. Each numeral shown in Table 7 is a relative activity value calculated by assuming as 100 the activity of the control Potassium Penicillin G.

Proteus morganii = experiment: MIC against clinical isolates; format: cell-based; conditions: Table 5-6, clinical isolate; unit assumed
Staphylococcus aureus = experiment: MIC against clinical isolates; format: cell-based; conditions: Table 5-1, clinical isolate; unit assumed
Shigella sonnei = experiment: MIC against clinical isolates; format: cell-based; conditions: Table 5-5, clinical isolate; unit assumed
Experimental: (§1) The minimum inhibitory concentration (MIC) was determined by the plate method disclosed in "Chemotherapy" (Japan), Vol. 16, (1968), pages 98-99. The culture medium used was a Heart infusion agar (pH 7.4). The number of the cells per plate used in the inoculum was 10^4 (10^6 cells/ml).
(§2) MIC was determined in the same manner as in the preceding paragraph (1).

Shigella flexneri = experiment: MIC against clinical isolates; format: cell-based; conditions: Table 5-5, clinical isolate; unit assumed
Experimental: as §1, §2

Escherichia coli = experiment: MIC against clinical isolates; format: cell-based; conditions: Table 5-2, clinical isolate; unit assumed
Proteus mirabilis = experiment: MIC against clinical isolates; format: cell-based; conditions: Table 5-6, clinical isolate; unit assumed
Pseudomonas aeruginosa = experiment: MIC against clinical isolates; format: cell-based; conditions: Table 5-3, clinical isolate; unit assumed
[2] = biological target: β-lactamase, Escherichia freundii GN 346 (Citrobacter freundii, UniProt Q46041); experiment: Resistant activity against β-lactamase, iodometric assay; format: biochemical; conditions: control Cephalorizine = 100
Experimental: (§3) (4) Resistant activity of each cephalosporin compound against β-lactamase, Proteus vulgaris GN 76 and Escherichia freundii GN 346:
(§4) The resistant activity of each cephalosporin compound against β-lactamase was measured in the manner described below.
(§5) β-lactamase was prepared from Proteus vulgaris GN 76 and Escherichia freundii GN 346. 10 ml of an overnight culture in Heart Infusion broth was diluted with 100 ml of a medium containing 2 g of yeast extract, 10 g of polypeptone, 2 g of glucose, 7 g of disodium hydrogen phosphate, 2 g of potassium dihydrogen phosphate, 1.2 g of ammonium sulfate and 0.4 g of magnesium sulfate, per liter, and incubated with shaking at 37° C. After incubation of 2 hrs, Penicillin G (50 μg/ml) was added as the inducer, and further incubated for 2 hrs. The resulting cells were collected by centrifugation (5,000 r.p.m.×10 min.) and washed two times with 0.1 M phosphate buffer (pH 7.0). Subsequently, the cells were subjected to sonication (20 KHz, 5 min.) and then centrifuged at 15,000 r.p.m. for 60 min. By using the supernatant of enzyme fluid, the stability of each compound against β-lactamase was determined by the iodometric assay method. Each numeral shown in Table 7-2 is a relative activity value calculated by assuming as 100 the activity of the control Cephalorizine.

[3] = biological target: T1, β-lactamase, Proteus vulgaris GN 76 (Proteus vulgaris, UniProt P52664); experiment: as above; format: biochemical; conditions: control Cephalorizine = 100
T1 construct: By using the supernatant of enzyme fluid; endogenous in cells; host or cells: Proteus vulgaris GN 76 (penicillin G-induced cells, sonicated, 15,000 r.p.m. supernatant)
Experimental: as §3, §4, §5

[4] = test system: Staphylococcus aureus 209p; experiment: MIC, plate method, standard strains; format: cell-based; conditions: unit assumed
Experimental: as §1

Escherichia coli NIHJ = experiment: MIC, plate method, standard strains; format: cell-based; conditions: unit assumed; for MIC Escherichia coli NIHJ: Table 4, standard strain
Experimental: as §1

Klebsiella pneumoniae = experiment: MIC, plate method, standard strains; format: cell-based; conditions: unit assumed
Experimental: as §1

Proteus vulgaris 3027 = experiment: MIC, plate method, standard strains; format: cell-based; conditions: unit assumed
Experimental: as §1

[5] = test system: Pseudomonas aeruginosa I.F.O.; experiment: MIC, plate method, standard strains; format: cell-based; conditions: unit assumed; for MIC Pseudomonas aeruginosa I.F.O.: Table 4, standard strain
Experimental: as §1

Sequence of β-lactamase, Escherichia freundii GN 346 (Q46041 entry or part of it): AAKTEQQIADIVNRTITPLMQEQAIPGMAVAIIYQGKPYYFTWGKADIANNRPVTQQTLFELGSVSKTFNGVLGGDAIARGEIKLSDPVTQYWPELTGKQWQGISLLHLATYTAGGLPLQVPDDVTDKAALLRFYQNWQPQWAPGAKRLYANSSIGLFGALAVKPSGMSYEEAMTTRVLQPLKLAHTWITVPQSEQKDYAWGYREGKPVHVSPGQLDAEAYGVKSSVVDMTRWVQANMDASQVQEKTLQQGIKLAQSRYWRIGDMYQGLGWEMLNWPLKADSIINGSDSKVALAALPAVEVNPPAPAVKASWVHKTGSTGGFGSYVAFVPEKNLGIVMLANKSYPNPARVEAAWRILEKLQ
T1 sequence (P52664 30-300): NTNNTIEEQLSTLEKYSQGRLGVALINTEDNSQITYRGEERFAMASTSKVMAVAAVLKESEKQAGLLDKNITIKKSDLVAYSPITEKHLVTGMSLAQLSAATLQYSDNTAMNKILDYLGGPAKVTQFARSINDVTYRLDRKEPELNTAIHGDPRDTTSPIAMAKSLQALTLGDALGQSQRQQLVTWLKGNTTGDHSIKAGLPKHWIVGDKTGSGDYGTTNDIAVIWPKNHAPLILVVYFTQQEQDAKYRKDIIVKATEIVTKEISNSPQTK

CC1(C)S[C@@H]2[C@H](NC(=O)Cc3ccccc3)C(=O)N2[C@H]1C(=O)O [Potassium Penicillin G, reference compound]
Relative activity (%), resistant activity against β-lactamase [1]: 100%

CC1(C)S[C@@H]2[C@H](NC(=O)[C@H](N)c3ccccc3)C(=O)N2[C@H]1C(=O)O [Sodium Ampicillin, reference compound]
MIC Proteus morganii (Proteus morganii): < 1.57 µg/mL
MIC Staphylococcus aureus MS 8588 (Staphylococcus aureus): 6.25 µg/mL
MIC Staphylococcus aureus MS 8596 (Staphylococcus aureus): 1.56 µg/mL
MIC Staphylococcus aureus MS 8684 (Staphylococcus aureus): 1.56 µg/mL
MIC Staphylococcus aureus MS 8713 (Staphylococcus aureus): 3.13 µg/mL
MIC Shigella sonnei JS 11232 (Shigella sonnei): > 200 µg/mL
MIC Shigella sonnei JS 11755 (Shigella sonnei): 6.25 µg/mL
MIC Shigella flexneri JS 11839 (Shigella flexneri): 1.57 µg/mL
MIC Escherichia coli GN 3435 (Escherichia coli): 3.13 µg/mL
MIC Escherichia coli GN 3452 (Escherichia coli): 6.25 µg/mL
MIC Escherichia coli GN 3481 (Escherichia coli): 6.25 µg/mL
MIC Escherichia coli K-1 (Escherichia coli): 6.25 µg/mL
MIC Escherichia coli K-2 (Escherichia coli): 6.25 µg/mL
MIC Proteus mirabilis (Proteus mirabilis): < 1.57 µg/mL

CC1(C)S[C@@H]2[C@H](NC(=O)C(C(=O)O)c3ccccc3)C(=O)N2[C@H]1C(=O)O (stereo partly drawn) [Sodium Carbenicillin, reference compound]
MIC Staphylococcus aureus F-1 (Staphylococcus aureus): 6.25 µg/mL
MIC Staphylococcus aureus F-2 (Staphylococcus aureus): 3.13 µg/mL
MIC Staphylococcus aureus F-3 (Staphylococcus aureus): 3.13 µg/mL
MIC Staphylococcus aureus F-4 (Staphylococcus aureus): 12.5 µg/mL
MIC Staphylococcus aureus MS 8588 (Staphylococcus aureus): 6.25 µg/mL
MIC Staphylococcus aureus MS 8596 (Staphylococcus aureus): 6.25 µg/mL
MIC Staphylococcus aureus MS 8684 (Staphylococcus aureus): 6.25 µg/mL
MIC Staphylococcus aureus MS 8713 (Staphylococcus aureus): 6.25 µg/mL
MIC Pseudomonas aeruginosa GN 383 (Pseudomonas aeruginosa): 50 µg/mL
MIC Shigella sonnei JS 11232 (Shigella sonnei): > 200 µg/mL
MIC Shigella sonnei JS 11755 (Shigella sonnei): 12.5 µg/mL
MIC Shigella flexneri JS 11215 (Shigella flexneri): > 200 µg/mL
MIC Shigella flexneri JS 11839 (Shigella flexneri): 12.5 µg/mL
MIC Escherichia coli GN 3435 (Escherichia coli): 6.25 µg/mL
MIC Escherichia coli GN 3452 (Escherichia coli): 12.5 µg/mL
MIC Escherichia coli GN 3481 (Escherichia coli): 6.25 µg/mL
MIC Escherichia coli K-1 (Escherichia coli): 6.25 µg/mL
MIC Escherichia coli K-2 (Escherichia coli): 6.25 µg/mL
MIC Escherichia coli K-4 (Escherichia coli): 12.5 µg/mL
Relative activity (%), resistant activity against β-lactamase [1]: 116%

CC1=C(C(=O)O)N2C(=O)[C@@H](NC(=O)[C@H](N)c3ccccc3)[C@H]2SC1 [Sodium Cephalexin, reference compound]
Relative activity (%) against β-lactamase, E. freundii GN 346 [2]: 29%
Relative activity (%) against β-lactamase, Pr. vulgaris GN 76 [3]: 150%

CC1(C)S[C@@H]2[C@H](NC(=O)C(c3ccccc3)S(=O)(=O)O)C(=O)N2[C@H]1C(=O)O (stereo partly drawn) [Sodium Sulbenicillin, reference compound]
MIC Staphylococcus aureus F-1 (Staphylococcus aureus): 6.25 µg/mL
MIC Staphylococcus aureus F-3 (Staphylococcus aureus): 6.25 µg/mL
MIC Staphylococcus aureus F-4 (Staphylococcus aureus): 6.25 µg/mL
MIC Shigella sonnei JS 11232 (Shigella sonnei): > 200 µg/mL
MIC Shigella sonnei JS 11755 (Shigella sonnei): > 200 µg/mL
MIC Shigella flexneri JS 11215 (Shigella flexneri): > 200 µg/mL
MIC Shigella flexneri JS 11839 (Shigella flexneri): 12.5 µg/mL
MIC Escherichia coli GN 3435 (Escherichia coli): 6.25 µg/mL
MIC Escherichia coli GN 3452 (Escherichia coli): 12.5 µg/mL
MIC Escherichia coli GN 3481 (Escherichia coli): 12.5 µg/mL
MIC Escherichia coli K-1 (Escherichia coli): 6.25 µg/mL
MIC Escherichia coli K-2 (Escherichia coli): 12.5 µg/mL
MIC Escherichia coli K-4 (Escherichia coli): 6.25 µg/mL
Relative activity (%), resistant activity against β-lactamase [1]: 50%

CC1(C)SC2C(NC(=O)C(NC(=O)N3CC(=O)NC(=O)C3)c3ccccc3)C(=O)N2C1C(=O)O (stereo not drawn) [compound 59]
MIC Staphylococcus aureus 209p ([4]; Table 3, standard strain, Heart infusion agar pH 7.4): < 1.57 µg/mL
MIC Esche--richin coil NIHJ (Escherichia coli NIHJ; Table 3, standard strain): < 1.57 µg/mL
MIC Klebsiella pneumoniae (Klebsiella pneumoniae; Table 3, standard strain): 200 µg/mL (≈ 409 µM)
MIC Proteus vulgaris 3027 (Proteus vulgaris 3027; Table 3, standard strain): 3.13 µg/mL (≈ 6.39 µM)
MIC Pseudomonas aeruginosa I.F.C ([5]; Table 3, standard strain): 25 µg/mL (≈ 51.1 µM)

CC(=O)OCC1=C(C(=O)O)N2C(=O)[C@@H](NC(=O)Cc3cccs3)[C@H]2SC1 [drawing 248, reference compound]
MIC Staphylococcus aureus 209p ([4]; Table 4, standard strain): < 1.57 µg/mL
MIC Escherichia coli NIHJ (Escherichia coli NIHJ): < 1.57 µg/mL
MIC Klebsiella pneumoniae (Klebsiella pneumoniae; Table 4, standard strain): < 1.57 µg/mL
MIC Proteus vulgaris 3027 (Proteus vulgaris 3027; Table 4, standard strain): 100 µg/mL (≈ 252 µM)
MIC Pseudomonas aeruginosa I.F.O. [5]: > 200 µg/mL

O=C(Cc1cccs1)N[C@@H]1C(=O)N2C(C(=O)[O-])=C(C[n+]3ccccc3)CS[C@H]12 [drawing 250, reference compound]
MIC Staphylococcus aureus 209p ([4]; Table 4, standard strain): < 1.57 µg/mL
MIC Escherichia coli NIHJ (Escherichia coli NIHJ): > 3.13 µg/mL
MIC Klebsiella pneumoniae (Klebsiella pneumoniae; Table 4, standard strain): 3.13 µg/mL (≈ 7.53 µM)
MIC Proteus vulgaris 3027 (Proteus vulgaris 3027; Table 4, standard strain): 200 µg/mL (≈ 481 µM)
MIC Pseudomonas aeruginosa I.F.O. [5]: 200 µg/mL (≈ 481 µM)
